Measured values published in US11787812B2, “Substituted pyrazolo[4,3-d]pyrimidines and imidazo[5,1 -f][1,2,4]triazines as androgen receptor and phosphodiesterase dual inhibitors” (ILDONG PHARMACEUTICAL CO., LTD., priority 2020, dated 2023).
Where two headings read alike, the source gives them in different places.

What was measured:
human PDE-5A1 = human PDE-5A1 (Homo sapiens (Human), UniProt O76074); experiment: Human PDE-5A1 inhibition assay (fluorescence polarization, FAM-cGMP); assay type: biochemical; conditions: human PDE5A1, 100 nM FAM-cGMP, 60 minutes room temperature
Source text: This example illustrates the in vitro inhibition of human PDE-5A1 by exemplary compounds of this disclosure (e.g., as described herein).
Sildenafil citrate (Catalog no. LKT-S3313, Axxora, San Diego, CA), Vardenafil hydrochloride trihydrate (Catalog no. SML2103, Sigma-Aldrich, St. Louis, MO), PDE Assay Buffer (Catalog no. 60393, BPS bioscience, San Diego, CA), PDE Binding Agent (Catalog no. 60390, BPS bioscience, San Diego, CA) and PDE Binding Agent Diluent (cGMP, Catalog no. 60392, BPS bioscience, San Diego, CA) were used for assays. Test compounds were supplied by Ildong Pharmaceuticals Co., Ltd.
The serial dilution of the compounds was first performed in 100% DMSO with the highest concentration at 1 mM and 0.1 mM. Each intermediate compound dilution (in 100% DMSO) will then get directly diluted 10× fold into assay buffer for 10% DMSO and 5 μL of the dilution was added to a 50 μL reaction so that the final concentration of DMSO is 1% in all reactions.
The enzymatic reactions were conducted at room temperature for 60 minutes in a 50 μL mixture containing PDE assay buffer, 100 nM FAM-cGMP, a PDE enzyme (Table 2) and the test compounds.
After enzymatic reaction, 100 μL of a binding solution (1:100 dilution of the binding agent with the binding agent diluent) was added to each reaction and the reaction was performed at room temperature for 60 minutes.
Fluorescence intensity was measured at excitation of 485 nm and an emission of 528 nm using a Tecan Infinite M1000 microplate reader.
PDE activity assays were performed in duplicate at each concentration. Fluorescence intensity is converted to fluorescence polarization using the Tecan Magellan6 software. The fluorescence polarization (FPt) in absence of the compound in each data set was defined as 100% activity. In the absence of PDE and the compound, the value fluorescent polarization (FPb) in each data set was defined as 0% activity. The percent activity in the presence of compound was calculated according to Equation 1:
[formula] where FP=the fluorescence polarization in the presence of the compound.
The values of % activity versus a series of compound concentrations were then plotted using non-linear regression analysis of Sigmoidal dose-response curve generated with Equation 2:
[formula] where Y=percent activity, B=minimum percent activity, T=maximum percent activity, X=logarithm of compound, and Hill Slope=slope factor or Hill coefficient. The IC50 value was determined by the concentration causing a half-maximal percent activity. Results

Human androgen receptors = Human androgen receptors (Homo sapiens (Human), UniProt P10275, T878A); experiment: Androgen receptor (AR) radioligand binding assay
Chain of Human androgen receptors (P10275 whole entry T878A): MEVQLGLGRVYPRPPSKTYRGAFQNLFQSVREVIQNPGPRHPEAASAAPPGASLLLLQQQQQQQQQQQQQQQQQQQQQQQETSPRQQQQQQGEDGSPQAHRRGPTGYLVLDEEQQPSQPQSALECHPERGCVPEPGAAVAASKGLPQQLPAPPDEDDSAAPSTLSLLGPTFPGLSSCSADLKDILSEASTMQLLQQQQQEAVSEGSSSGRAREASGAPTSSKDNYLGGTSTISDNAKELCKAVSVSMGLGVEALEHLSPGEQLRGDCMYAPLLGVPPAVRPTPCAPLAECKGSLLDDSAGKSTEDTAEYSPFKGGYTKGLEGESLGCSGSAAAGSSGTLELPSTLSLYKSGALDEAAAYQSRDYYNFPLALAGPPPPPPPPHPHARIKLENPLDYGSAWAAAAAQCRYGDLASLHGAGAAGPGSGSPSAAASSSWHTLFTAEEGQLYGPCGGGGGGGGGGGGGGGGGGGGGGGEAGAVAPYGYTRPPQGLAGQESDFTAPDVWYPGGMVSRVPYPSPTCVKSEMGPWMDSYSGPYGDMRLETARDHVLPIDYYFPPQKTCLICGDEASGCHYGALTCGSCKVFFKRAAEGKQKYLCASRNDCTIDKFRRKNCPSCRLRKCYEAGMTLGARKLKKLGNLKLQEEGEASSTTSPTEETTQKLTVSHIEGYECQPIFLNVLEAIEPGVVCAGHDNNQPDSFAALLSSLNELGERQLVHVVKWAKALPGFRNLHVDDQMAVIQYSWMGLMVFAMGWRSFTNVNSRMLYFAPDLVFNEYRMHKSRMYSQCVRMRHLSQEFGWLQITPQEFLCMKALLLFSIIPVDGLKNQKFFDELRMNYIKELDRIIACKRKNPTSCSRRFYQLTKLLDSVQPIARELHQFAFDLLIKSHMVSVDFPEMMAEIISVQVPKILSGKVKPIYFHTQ
Description: Methods employed in this study have been adapted from the following literature procedure.
Human androgen receptors obtained from human LNCaP cells are used in modified HEPES buffer pH 7.4. […] Non-specific binding is estimated in the presence of 1 μM testosterone. […] (See, e.g., Traish, A. M et al., Binding of 7α, 17α-dimethyl-19-nortestosterone (Mibolerone) to androgen and progesterone receptors in human and animal tissues. Endocrinology. 118(4): 1327-1333, 1986).
Compounds are screened at 10 μM.
Where presented, IC50 values were determined by a non-linear, least squares regression analysis using MathIQ™ (ID Business Solutions Ltd., UK).

androgen receptor (AR) = androgen receptor (AR) (Homo sapiens (Human), UniProt P10275); experiment: Androgen receptor (AR) reporter assay, antagonist screen activated by R1881; assay type: cell-based; conditions: AR-UAS-bla GripTite 293 cells, antagonist mode, R1881 at EC80
Chain of androgen receptor (AR) (P10275 other isoform, or with tags, fused parts or gaps): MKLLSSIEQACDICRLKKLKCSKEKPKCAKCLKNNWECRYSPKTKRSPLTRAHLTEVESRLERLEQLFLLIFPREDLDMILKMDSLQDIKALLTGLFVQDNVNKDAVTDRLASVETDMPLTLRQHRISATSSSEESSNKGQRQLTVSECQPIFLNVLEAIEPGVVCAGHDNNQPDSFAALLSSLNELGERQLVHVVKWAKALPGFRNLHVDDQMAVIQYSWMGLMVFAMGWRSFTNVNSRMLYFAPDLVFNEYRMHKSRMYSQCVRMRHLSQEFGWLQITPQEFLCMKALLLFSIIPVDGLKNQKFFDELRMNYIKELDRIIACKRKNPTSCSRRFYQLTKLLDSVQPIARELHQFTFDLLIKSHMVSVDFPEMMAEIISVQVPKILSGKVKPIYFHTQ
Description: The protocols and results of this Example were carried out and obtained by Thermofisher Scientific.
Test compounds were received at 1000× (or greater) of the desired starting concentration in 100% DMSO. If compounds were supplied at greater that 1000× concentration, an initial dilution is made in 100% DMSO to bring the compounds to 1000× concentration. The 1000× test compounds were serially diluted (10 point ½-log increments) in 100% DMSO.
The Substrate Loading Solution consists of three Life Technologies reagents: Solution A (10 mM LiveBLAzer™-FRET B/G Substrate), Solution B and Solution C.
Androgen Receptor (AR)—Antagonist Screen, Activated by R1881
AR-UAS-bla GripTite™ 293 cells were thawed and resuspended in Assay Media (DMEM phenol red free, 2% CD-treated FBS, 0.1 mM NEAA, 1 mM Sodium Pyruvate, 100 U/mL/100 μg/mL Pen/Strep) to a concentration of 312,500 cells/mL. 4 μL of a 10× serial dilution of Cyproterone Acetate (control antagonist starting concentration, 3,160 nM) or compounds are added to appropriate wells of a Poly-D-Lysine assay plate. 32 μL of cell suspension was added to the wells and pre-incubated at 37° C./5% CO2 in a humidified incubator with compounds and control antagonist titration for 30 minutes. 4 μL of 10× control agonist R1881 at the pre-determined EC80 concentration was added to wells containing the control antagonist or compounds. The plate was incubated for 16-24 hours at 37° C./5% CO2 in a humidified incubator. 8 μL of 1 μM Substrate Loading Solution is added to each well and the plate was incubated for 2 hours at room temperature. The plate was read on a fluorescence plate reader (Tecan Safire^2).

[1] = receptors from human LNCaP cells, 0.5 nM [3H]Methyltrienolone, 20 hours at 4° C., read-out: AR IC50

| SMILES | IC50 (human PDE-5A1) [nM] | IC50 (Human androgen receptors; [1]) [nM] | IC50 (androgen receptor (AR)) [nM] | IC50 (Human androgen receptors; read-out: AR IC50) [nM] | IC50 (Human androgen receptors) [nM] |
| --- | --- | --- | --- | --- | --- |
| CCCc1nn(C)c2c(=O)[nH]c(-c3cc(N4C(=S)N(c5cnc(C#N)c(C(F)(F)F)c5)C(=O)C45CCC5)ccc3OCC)nc12 [Compound 23, 5-(5-(4-ethoxy-3-(1-methyl-7-oxo-3-propyl-6,7-dihydro-1H-pyrazolo[4,3-d]pyrimidin-5-yl)phenyl)-8-oxo-6-thioxo-5,7-diazaspiro[3.4]octan-7-yl)-3-(trifluoromethyl)picolinonitrile] | > 100 | > 200 | ≤ 500 | – | – |
| CCCc1nc(C)c2c(=O)[nH]c(-c3cc(N4C(=S)N(c5ccc(C#N)c(C(F)(F)F)c5F)C(=O)C4(C)C)ccc3OCC)nn12 [Compound 47, 4-(3-(4-ethoxy-3-(5-methyl-4-oxo-7-propyl-3,4-dihydroimidazo[5,1-f][1,2,4]triazin-2-yl)phenyl)-4,4-dimethyl-5-oxo-2-thioxoimidazolidin-1-yl)-3-fluoro-2-(trifluoromethyl)benzonitrile] | ≤ 10 | < 50 | ≤ 500 | – | – |
| CCCc1nc(C)c2c(=O)[nH]c(-c3cc(N4C(=S)N(c5cnc(C#N)c(C(F)(F)F)c5)C(=O)C4(C)C)ccc3OCC)nn12 [Compound 20, 5-(3-(4-ethoxy-3-(5-methyl-4-oxo-7-propyl-3,4-dihydroimidazo[5,1-f][1,2,4]triazin-2-yl)phenyl)-4,4-dimethyl-5-oxo-2-thioxoimidazolidin-1-yl)-3-(trifluoromethyl)picolinonitrile] | ≤ 10 | – | ≤ 500 | 50 to 200 | – |
| CCCc1nc(C)c2c(=O)[nH]c(-c3cc(N4C(=S)N(c5ccc(C#N)c(C(F)(F)F)c5F)C(=O)C45CCC5)ccc3OCC)nn12 [Compound 48, 4-(5-(4-ethoxy-3-(5-methyl-4-oxo-7-propyl-3,4-dihydroimidazo[5,1-f][1,2,4]triazin-2-yl)phenyl)-8-oxo-6-thioxo-5,7-diazaspiro[3.4]octan-7-yl)-3-fluoro-2-(trifluoromethyl)benzonitrile] | ≤ 10 | < 50 | ≤ 500 | – | – |
| CCCc1nc(C)c2c(=O)[nH]c(-c3cc(N4C(=S)N(c5ccc(C#N)c(C(F)(F)F)c5)C(=O)C45CCOC5)ccc3OCC)nn12 (stereo not drawn) [Compound 34, 4-(1-(4-ethoxy-3-(5-methyl-4-oxo-7-propyl-3,4-dihydroimidazo[5,1-f][1,2,4]triazin-2-yl)phenyl)-4-oxo-2-thioxo-7-oxa-1,3-diazaspiro[4.4]nonan-3-yl)-2-(trifluoromethyl)benzonitrile] | ≤ 10 | – | ≤ 500 | – | 50 to 200 |
| CCCc1nc(C)c2c(=O)[nH]c(-c3cc(N4C(=S)N(c5ccc(C#N)c(C(F)(F)F)c5F)C(=O)C45CCCC5)ccc3OCC)nn12 [Compound 50, 4-(1-(4-ethoxy-3-(5-methyl-4-oxo-7-propyl-3,4-dihydroimidazo[5,1-f][1,2,4]triazin-2-yl)phenyl)-4-oxo-2-thioxo-1,3-diazaspiro[4.4]nonan-3-yl)-3-fluoro-2-(trifluoromethyl)benzonitrile] | ≤ 10 | < 50 | ≤ 500 | – | – |
| CCCc1nc(C)c2c(=O)[nH]c(-c3cc(N4C(=S)N(c5ccc(C#N)c(C(F)(F)F)c5F)C(=O)C45CCOC5)ccc3OCC)nn12 (stereo not drawn) [Compound 49, 4-(1-(4-ethoxy-3-(5-methyl-4-oxo-7-propyl-3,4-dihydroimidazo[5,1-f][1,2,4]triazin-2-yl)phenyl)-4-oxo-2-thioxo-7-oxa-1,3-diazaspiro[4.4]nonan-3-yl)-3-fluoro-2-(trifluoromethyl)benzonitrile] | ≤ 10 | < 50 | 500 to 1000 | – | – |
| CCCc1nn(C)c2c(=O)[nH]c(-c3cc(N4C(=S)N(c5ccc(C#N)c(C(F)(F)F)c5)C(=O)C45CCC5)ccc3OCC)nc12 [Compound 21, 4-(5-(4-ethoxy-3-(1-methyl-7-oxo-3-propyl-6,7-dihydro-1H-pyrazolo[4,3-d]pyrimidin-5-yl)phenyl)-8-oxo-6-thioxo-5,7-diazaspiro[3.4]octan-7-yl)-2-(trifluoromethyl)benzonitrile] | > 100 | > 200 | ≤ 500 | – | – |
| CCCc1nc(C)c2c(=O)[nH]c(-c3cc(N4C(=S)N(c5ccc(C#N)c(C(F)(F)F)c5)C(=O)C45CCC5)ccc3OCC)nn12 [Compound 22, 4-(5-(4-ethoxy-3-(5-methyl-4-oxo-7-propyl-3,4-dihydroimidazo[5,1-f][1,2,4]triazin-2-yl)phenyl)-8-oxo-6-thioxo-5,7-diazaspiro[3.4]octan-7-yl)-2-(trifluoromethyl)benzonitrile] | ≤ 10 | – | ≤ 500 | – | 50 to 200 |
| CCCc1nc(C)c2c(=O)[nH]c(-c3cc(S(=O)(=O)NC4CCN(c5ccc(C#N)c(C(F)(F)F)c5)CC4)ccc3OCC)nn12 [Compound 30, N-(1-(4-cyano-3-(trifluoromethyl)phenyl)piperidin-4-yl)-4-ethoxy-3-(5-methyl-4-oxo-7-propyl-3,4-dihydroimidazo[5,1-f][1,2,4]triazin-2-yl)benzenesulfonamide] | ≤ 10 | < 50 | ≤ 500 | – | – |
| CCCc1nn(C)c2c(=O)[nH]c(-c3cc(N4C(=S)N(c5cnc(C#N)c(C(F)(F)F)c5)C(=O)C4(C)C)ccc3OCC)nc12 [Compound 19, 5-(3-(4-ethoxy-3-(1-methyl-7-oxo-3-propyl-6,7-dihydro-1H-pyrazolo[4,3-d]pyrimidin-5-yl)phenyl)-4,4-dimethyl-5-oxo-2-thioxoimidazolidin-1-yl)-3-(trifluoromethyl)picolinonitrile] | > 100 | > 200 | 500 to 1000 | – | – |
| CCCc1nc(C)c2c(=O)[nH]c(-c3cc(S(=O)(=O)NC4CCN(c5ccc(C#N)c(C(F)(F)F)c5)C4)ccc3OCC)nn12 (stereo not drawn) [Compound 31, N-(1-(4-cyano-3-(trifluoromethyl)phenyl)pyrrolidin-3-yl)-4-ethoxy-3-(5-methyl-4-oxo-7-propyl-3,4-dihydroimidazo[5,1-f][1,2,4]triazin-2-yl)benzenesulfonamide] | ≤ 10 | – | 500 to 1000 | – | 50 to 200 |
| CCCc1nc(C)c2c(=O)[nH]c(-c3cc(S(=O)(=O)NC4CN(c5ccc(C#N)c(C(F)(F)F)c5)C4)ccc3OCC)nn12 [Compound 29, N-(1-(4-cyano-3-(trifluoromethyl)phenyl)azetidin-3-yl)-4-ethoxy-3-(5-methyl-4-oxo-7-propyl-3,4-dihydroimidazo[5,1-f][1,2,4]triazin-2-yl)benzenesulfonamide] | ≤ 10 | – | 500 to 1000 | – | 50 to 200 |
